Earlier results as cited in patent publication US20170035783A1, “COMPOSITION FOR THE PREVENTION AND THERAPY OF TUMOR DISEASES” (SANOXSYS GMBH, priority 2014, published 2017).

Tested on: breast cancer risk
Conditions: subcutaneous pellet, 2008-2010

## C[C@]12CC[C@H]3[C@@H](CCC4=CC(=O)CC[C@@]43C)[C@@H]1CC[C@@H]2O [testosterone alone, testosterone]
  breast cancer risk in pre- and postmenopausal women: reduce the breast cancer risk
